From patent publication US10287301B2 (Achillion Pharmaceuticals, Inc., priority 2015, dated 2019)
Read-outs that look alike come from different tables or passages of the source.

Target: Human Factor D (Homo sapiens (Human), UniProt P00746)
Experiment: Human Factor D Assay
Type: biochemical
Procedure, shortened: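 Thioester cleavage assay: human Factor D (serum-derived, 80 nM final), substrate Z-L-Lys-SBzl with DTNB, both 100 μM final, after 5 min compound preincubation at room temperature.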

[1] = Table 3, Human Factor D 80 nM, substrate Z-L-Lys-SBzl, read-out: IC50 (Stars)
[2] = Human Factor D, Table 3, read-out: IC50

Sequence of Human Factor D (P00746 26-253): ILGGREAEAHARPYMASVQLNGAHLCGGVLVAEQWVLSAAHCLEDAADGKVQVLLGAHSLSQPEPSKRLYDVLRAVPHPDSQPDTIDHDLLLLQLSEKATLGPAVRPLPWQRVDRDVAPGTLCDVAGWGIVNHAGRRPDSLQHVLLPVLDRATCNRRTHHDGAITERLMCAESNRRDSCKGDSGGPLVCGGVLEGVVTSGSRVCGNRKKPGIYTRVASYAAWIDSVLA

| Structure (SMILES) | IC50 [2] [nM] | also measured |
| --- | --- | --- |
| Cc1cccc(NC(=O)[C@@H]2[C@H]3CC[C@H](C3)N2C(=O)Cn2cc(C(N)=O)c3cc(-c4cnc5c(c4)CCC5)ccc32)n1 [Compound 535, 5-(6,7-Dihydro-5H-cyclopenta[b]pyridin-3-yl)-1-(2-((1R,3S,4S)-3-(6-methylpyridin-2-ylcarbamoyl)-2-azabicyclo[2.2.1]heptan-2-yl)-2-oxoethyl)-1H-indole-3-carboxamide] | – | IC50 [1]: > 10000 nM |
| Cc1cccc(NC(=O)[C@@H]2[C@H]3CC[C@H](C3)N2C(=O)Cn2cc(C(N)=O)c3cc(-c4ccc5c(c4)CC5)ccc32)n1 [Compound 536, 5-(1,2-Dihydrocyclobutabenzen-4-yl)-1-(2-((1R,3S,4S)-3-(6-methylpyridin-2-ylcarbamoyl)-2-azabicyclo[2.2.1]heptan-2-yl)-2-oxoethyl)-1H-indole-3-carboxamide] | – | IC50 [1]: > 10000 nM |
| CCOC(=O)Cc1ncc(-c2ccc3c(c2)c(C(C)=O)nn3CC(=O)N2C[C@H](F)C[C@H]2C(=O)Nc2cccc(Br)n2)cn1 [Compound 537, Ethyl 2-(5-(3-acetyl-1-(2-((2S,4R)-2-((6-bromopyridin-2-yl)carbamoyl)-4-fluoropyrrolidin-1-yl)-2-oxoethyl)-1H-indazol-5-yl)pyrimidin-2-yl)acetate] | – | IC50 [1]: < 1000 nM |
| CC(=O)c1nn(CC(=O)N2C[C@H](F)C[C@H]2C(=O)Nc2nc(Br)ccc2C2CC2)c2ccc(-c3cnc(C)nc3)cc12 [Compound 538, (2S,4R)-1-(2-(3-Acetyl-5-(2-methylpyrimidin-5-yl)-1H-indazol-1-yl)acetyl)-N-(6-bromo-3-cyclopropylpyridin-2-yl)-4-fluoropyrrolidine-2-carboxamide] | – | IC50 [1]: < 1000 nM |
| CCOC(=O)Cc1ncc(-c2ccc3c(c2)c(C(C)=O)nn3CC(=O)N2C[C@H](F)C[C@H]2C(=O)Nc2ccc(F)c(Br)n2)cn1 [Compound 539, ethyl 2-(5-(3-Acetyl-1-(2-((2S,4R)-2-((6-bromo-5-fluoropyridin-2-yl)carbamoyl)-4-fluoropyrrolidin-1-yl)-2-oxoethyl)-1H-indazol-5-yl)pyrimidin-2-yl)acetate] | – | IC50 [1]: < 1000 nM |
| CC(=O)c1nn(CC(=O)N2CC[C@H]2C(=O)Nc2cccc(Br)n2)c2ccc(-c3cnc(C)nc3)cc12 [Compound 542, (S)-1-(2-(3-Acetyl-5-(2-methylpyrimidin-5-yl)-1H-indazol-1-yl)acetyl)-N-(6-bromopyridin-2-yl)azetidine-2-carboxamide] | < 1000 | – |
| COc1ccc(-c2ccc3c(c2)c(C(C)=O)nn3CC(=O)N2CC[C@H]2C(=O)Nc2cccc(C)n2)cn1 [Compound 546, (S)-1-(2-(3-Acetyl-5-(6-methoxypyridin-3-yl)-1H-indazol-1-yl)acetyl)-N-(6-methylpyridin-2-yl)azetidine-2-carboxamide] | > 10000 | – |
| CC(=O)c1nn(CC(=O)N2CC[C@H]2C(=O)Nc2cccc(C)n2)c2ccc(-c3cccc(C#N)c3)cc12 [Compound 547, (S)-1-(2-(3-Acetyl-5-(3-cyanophenyl)-1H-indazol-1-yl)acetyl)-N-(6-methylpyridin-2-yl)azetidine-2-carboxamide] | > 10000 | – |
| CC(=O)c1nn(CC(=O)N2CC[C@H]2C(=O)Nc2cccc(C)n2)c2ccc(-c3cccnc3)cc12 [Compound 548, (S)-1-(2-(3-Acetyl-5-(pyridin-3-yl)-1H-indazol-1-yl)acetyl)-N-(6-methylpyridin-2-yl)azetidine-2-carboxamide] | > 10000 | – |
| CC(=O)c1nn(CC(=O)N2CC[C@H]2C(=O)Nc2cccc(C)n2)c2ccc(-c3ccc(F)nc3)cc12 [Compound 549, (S)-1-(2-(3-Acetyl-5-(6-fluoropyridin-3-yl)-1H-indazol-1-yl)acetyl)-N-(6-methylpyridin-2-yl)azetidine-2-carboxamide] | > 10000 | – |
| CC(=O)c1nn(CC(=O)N2[C@@H]3C[C@@H]3C[C@H]2C(=O)NCC(F)=C(C)C2CC2)c2ccc(-c3cnc(C)nc3)cc12 [Compound 551, (1R,3S,5R)-2-(2-(3-Acetyl-5-(2-methylpyrimidin-5-yl)-1H-indazol-1-yl)acetyl)-N-(3-cyclopropyl-2-fluorobut-2-en-1-yl)-2-azabicyclo[3.1.0]hexane-3-carboxamide] | < 1000 | – |
| CC(=O)c1nn(CC(=O)N2C[C@H](F)C[C@H]2C(=O)Nc2cccc(Br)n2)c2ccc(-c3cnc(Oc4ccncc4)nc3)cc12 [Compound 554, (2S,4R)-1-(2-(3-aAetyl-5-(2-(pyridin-4-yloxy)pyrimidin-5-yl)-1H-indazol-1-yl)acetyl)-N-(6-bromopyridin-2-yl)-4-fluoropyrrolidine-2-carboxamide] | < 1000 | – |
| CC(=O)c1nn(CC(=O)N2C[C@H](F)C[C@H]2C(=O)Nc2cccc(Br)n2)c2ccc(-c3cnc(COC(=O)N(C)C)nc3)cc12 [Compound 555, (5-(3-Acetyl-1-(2-((2S,4R)-2-((6-bromopyridin-2-yl)carbamoyl)-4-fluoropyrrolidin-1-yl)-2-oxoethyl)-1H-indazol-5-yl)pyrimidin-2-yl)methyl dimethylcarbamate] | < 1000 | – |
| CC(=O)c1nn(CC(=O)N2C[C@H](F)C[C@H]2C(=O)Nc2cccc(Br)n2)c2ccc(-c3cnc(NS(C)(=O)=O)nc3)cc12 [Compound 556, (2S,4R)-1-(2-(3-Acetyl-5-(2-(methylsulfonamido)pyrimidin-5-yl)-1H-indazol-1-yl)acetyl)-N-(6-bromopyridin-2-yl)-4-fluoropyrrolidine-2-carboxamide] | < 1000 | – |
| CC(=O)c1nn(CC(=O)N2[C@@H]3C[C@@H]3C[C@H]2C(=O)NC/C(F)=C(\C)c2ccccc2)c2ccc(-c3cnc(C)nc3)cc12 [Compound 557, (1R,3S,5R)-2-(2-(3-Acetyl-5-(2-methylpyrimidin-5-yl)-1H-indazol-1-yl)acetyl)-N—((Z)-2-fluoro-3-phenylbut-2-en-1-yl)-2-azabicyclo[3.1.0]hexane-3-carboxamide] | < 1000 | – |
| CC(=O)c1nn(CC(=O)N2C[C@H](F)C[C@H]2C(=O)Nc2ccn(CC(F)(F)F)n2)c2ccc(-c3cnc(N)nc3)cc12 [Compound 558, (2S,4R)-1-(2-(3-Acetyl-5-(2-aminopyrimidin-5-yl)-1H-indazol-1-yl)acetyl)-4-fluoro-N-(1-(S2,2,2-trifluoroethyl)-1H-pyrazol-3-yl)pyrrolidine-2-carboxamide] | < 1000 | – |
| CC(=O)c1nn(CC(=O)N2C[C@H](F)C[C@H]2C(=O)Nc2cccc(C(F)(F)F)n2)c2ccc(-c3cnc(N)nc3)cc12 [Compound 560, (2S,4R)-1-(2-(3-Acetyl-5-(2-aminopyrimidin-5-yl)-1H-indazol-1-yl)acetyl)-4-fluoro-N-(6-(trifluoromethyl)pyridin-2-yl)pyrrolidine-2-carboxamide] | < 1000 | – |
| CC(=O)c1nn(CC(=O)N2C[C@H](F)C[C@H]2C(=O)Nc2cccc(C(F)(F)F)n2)c2ccc(-c3cnc(C)nc3)cc12 [Compound 562, (2S,4R)-1-(2-(3-Acetyl-5-(2-methylpyrimidin-5-yl)-1H-indazol-1-yl)acetyl)-4-fluoro-N-(6-(trifluoromethyl)pyridin-2-yl)pyrrolidine-2-carboxamide] | < 1000 | – |
| CC(=O)c1nn(CC(=O)N2C[C@H](F)C[C@H]2C(=O)Nc2cccc(OC(F)(F)F)c2F)c2ccc(-c3cnc(N)nc3)cc12 [Compound 563, (2S,4R)-1-(2-(3-Acetyl-5-(2-aminopyrimidin-5-yl)-1H-indazol-1-yl)acetyl)-4-fluoro-N-(2-fluoro-3-(trifluoromethoxy)phenyl)pyrrolidine-2-carboxamide] | < 1000 | – |
| CCc1ncc(-c2ccc3c(c2)c(C(C)=O)nn3CC(=O)N2C[C@H](F)C[C@H]2C(=O)Nc2cccc(Br)n2)cn1 [Compound 566, (2S,4R)-1-(2-(3-Acetyl-5-(2-ethylpyrimidin-5-yl)-1H-indazol-1-yl)acetyl)-N-(6-bromopyridin-2-yl)-4-fluoropyrrolidine-2-carboxamide] | < 1000 | – |
| CC(=O)c1nn(CC(=O)N2C[C@H](F)C[C@H]2C(=O)Nc2cccc(Br)n2)c2ccc(-c3cnc(C(C)C)nc3)cc12 [Compound 567, (2S,4R)-1-(2-(3-Acetyl-5-(2-isopropylpyrimidin-5-yl)-1H-indazol-1-yl)acetyl)-N-(6-bromopyridin-2-yl)-4-fluoropyrrolidine-2-carboxamide] | < 1000 | – |
| CC(=O)c1nn(CC(=O)N2C[C@H](F)C[C@H]2C(=O)NC[C@@H]2CCN(C)C2)c2ccc(-c3cnc(C)nc3)cc12 [Compound 568, (2S,4R)-1-(2-(3-Acetyl-5-(2-methylpyrimidin-5-yl)-1H-indazol-1-yl)acetyl)-4-fluoro-N—(((S)-1-methylpyrrolidin-3-yl)methyl)pyrrolidine-2-carboxamide] | > 10000 | – |
| CC(=O)c1nn(CC(=O)N2C[C@H](F)C[C@H]2C(=O)NC[C@H]2CCN(C)C2)c2ccc(-c3cnc(C)nc3)cc12 [Compound 569, (2S,4R)-1-(2-(3-acetyl-5-(2-methylpyrimidin-5-yl)-1H-indazol-1-yl)acetyl)-4-fluoro-N—(((R)-1-methylpyrrolidin-3-yl)methyl)pyrrolidine-2-carboxamide] | > 10000 | – |
| CC(=O)c1nn(CC(=O)N2CCC[C@H]2C(=O)Nc2cccc(C)n2)c2ccc(-c3ccc4c(c3)CCC4)cc12 [Compound 572, (S)-1-(2-(3-Acetyl-5-(2,3-dihydro-1H-inden-5-yl)-1H-indazol-1-yl)acetyl)-N-(6-methylpyridin-2-yl)pyrrolidine-2-carboxamide] | – | IC50: 1000 to 10000 nM |
| CC(=O)c1nn(CC(=O)N2CC[C@H]2C(=O)Nc2cccc(C)n2)c2ccc(-c3ccc4c(c3)CCC4)cc12 [Compound 573, (S)-1-(2-(3-Acetyl-5-(2,3-dihydro-1H-inden-5-yl)-1H-indazol-1-yl)acetyl)-N-(6-methylpyridin-2-yl)azetidine-2-carboxamide] | > 10000 | – |
| CC(=O)c1nn(CC(=O)N2[C@@H]3C[C@@H]3C[C@H]2C(=O)Nc2nc(Br)ccc2CO)c2ccc(-c3cnc(C)nc3)cc12 [Compound 574, (1R,3S,5R)-2-(2-(3-acetyl-5-(2-methylpyrimidin-5-yl)-1H-indazol-1-yl)acetyl)-N-(6-bromo-3-(hydroxymethyl)pyridin-2-yl)-2-azabicyclo[3.1.0] hexane-3-carboxamide] | < 1000 | – |
